Laboratory results as given in paper PMC11678797, “A Repurposed Drug Selection Pipeline to Identify CNS-Penetrant Drug Candidates for Glioblastoma” (Pharmaceuticals, 2024).
Where two headings read alike, the source gives them in different places.

What was measured:
[1] = test system: GBM8 glioblastoma patient-derived cell culture; assay: In vitro drug screening, cell viability by CellTiter GLO 2.0 after 5 days; format: cell-based; conditions: Homo sapiens, 120 h, 5 days incubation
Method: Glioblastoma stem-like cell cultures (GSC) were derived from primary brain tumor samples received directly from the operating room. Tumor classification was performed by the local neuropathologist according to guidelines of the WHO 2007 and 2016 classification of primary brain tumors. The use of patient tissue for this study was approved by the local ethics committee and all patients signed informed consent forms according to the guidelines of the Institutional Review Board. Samples were processed as described previously. The GBM8 cell line was kindly provided by dr. Hiroaki Wakimoto (Massachusetts General Hospital, Boston, MA, USA). All cell cultures were grown in Dulbecco’s modified Eagle’s medium (DMEM)–F12 with 1% penicillin/streptomycin, B27 (Invitrogen), human epidermal growth factor (EGF; 5 μg/mL), human basic fibroblast growth factor (FGF; 5 μg/mL) (both from Tebu-Bio) and heparin ([…]; Sigma-Aldrich, St. Louis, MI, USA).
Glioma stem-like cell cultures were cultured under serum free conditions according to Verheul et al.. Cells were seeded in 96-well plates (Greiner bio-one, Kremsmünster, Austria) coated with extracellular matrix (BD Bioscience, Becton Drive Franklin Lakes, NJ, USA) at 1000 cells/well. A stock solution of OMA was diluted in a serum-free cell culture medium to obtain a starting concentration of 8 μM in 0.1% DMSO. Serial dilutions of OMA and DMSO were added to the wells 24 h later for an incubation period of 5 days. Cell viability was measured by the CellTiter GLO 2.0 and dose–response curves and IC50 values were calculated using GraphPad Prism version 9. All experiments were performed in 3 biological replicates.
GraphPad Prism software version 9.5 (GraphPad Software) was used for calculating IC50 values using nonlinear regression (curve-fit). GraphPad Prism was used to determine whether there was a statistically significant difference in OMA concentration and the B/P ratio between the L and R hemispheres of mice bearing GS832, GS607 and GBM8 tumors, using an unpaired t-test. […]

[2] = Pharmacokinetics of omacetaxine in orthotopic glioblastoma PDX and naïve NOD/SCID mice (LC-MS/MS of plasma, brain, liver); format: in vivo, mouse; conditions: for [Brain] ± SD, right hemisphere (tumor bearing) / [Liver] ± SD / [Plasma] ± SD / [Brain]/[Plasma] Ratio ± SD / concentration at 60 min: 1.5 mg/kg; for concentration at 60 min: female, NOD/SCID, mouse, sc
Method: An amount of 10 μL medium samples was vortex-mixed with 30 μL of acetonitrile: formic acid (100:1 v/v) containing 100 nM RO-3306 Internal Standard). After centrifugation, the supernatant was 5-fold diluted in water. OMA concentrations were measured using an LC-MS/MS system that consisted of an UltiMate 3000 LC System (Dionex, Sunnyvale, CA, USA) and an API 4000 mass spectrometer (Sciex, Framingham, MA, USA). Samples were analyzed using a ZORBAX Extend-C18 column (Agilent, Santa Clara, CA, USA), preceded by a Security-guard C18 pre-column (Phenomenex, Utrecht, The Netherlands). Elution was performed using a mixture of mobile phase A (0.1% formic acid in water (v/v)) and mobile phase B (methanol) in a 5 min gradient from 20% to 95% B, followed by 95% B that was maintained for 3 min and then re-equilibrated at 20% B. Multiple reaction monitoring parameters were 546.6/298.1 (OMA) and 352.1/186.0 (RO-3306).
Non-obese diabetic severe combined immunodeficient (NOD/SCID) female mice 6–8 weeks of age were used for this study. All experiments were ethically approved by the local Animal Experiments Committee. Patient-derived glioblastoma cell lines were cultured under serum-free conditions prior to injection into the mice. Mice were stereotactically injected with GS607, GS832 (both 2.5 × 10^5 in 5 μL) or GBM8 (1 × 10^5 in 3 μL) in the right striatum 1.0 mm anteroposterior (AP), 2.0 mm medio lateral (ML) and −2.5 mm dorsal ventral (DV) of bregma suture under aseptic conditions. Mice were monitored daily for signs of persistent abnormal behavior and/or breathing, weight loss >20% and development of neurological symptoms such as convulsions, seizures and/or hemiparesis. Mice were euthanized and the mouse brains harvested for histological and LC/MS/MS analysis.
A single dose of 1.5 mg/kg of OMA was administered s.c. to glioblastoma-bearing NOD/SCID and naïve non-tumor-bearing mice. Mice received OMA prior to the timepoint drug delivery experiment, ensuring the presence of significant tumor masses. For GS607, this was at 78 days; for GS832 at 90 days; and for GBM8 at 46 days post-tumor implantation, based on previous survival experiments. Blood samples were collected at 15 min, 30 min, 60 min, 120 min and 240 min via the tail vein and/or submandibular vein and placed in EDTA tubes. Mice were euthanized at 60 min, 120 min or 240 min with cervical dislocation. Brains and livers were surgically collected and snap-frozen in liquid nitrogen (N2). To preserve the drug stability in plasma mouse blood, samples were centrifuged immediately upon collection. Plasma was separated by centrifugation at 3500 rpm at 4 °C for 15 min. Both plasma and tissue samples were stored at −80 °C until LC-MS/MS analysis.

[3] = GBM8 PDX, 60 min, single s.c. dose 1.5 mg/kg, n = 6
[4] = GS607-PDX, 60 min, single s.c. dose 1.5 mg/kg, n = 2 blood samples
[5] = GS607-PDX, 60 min, single s.c. dose 1.5 mg/kg, n = 4
[6] = GS832-PDX, 60 min, single s.c. dose 1.5 mg/kg, n = 5
[7] = GS832-PDX, single s.c. dose 1.5 mg/kg

COC(=O)C[C@](O)(CCCC(C)(C)O)C(=O)O[C@@H]1C(OC)=C[C@]23CCCN2CCc2cc4c(cc2[C@H]13)OCO4 [OMA, Omacetaxine mepesuccinate]
IC50 [1]: 7.2 nM
[Brain] ± SD, right hemisphere (tumor bearing) [2, 3]: 45.0 ± 20.0 ng/g
[Liver] ± SD [2, 3]: 998.2 ± 254.3 ng/g
[Plasma] ± SD [2, 3]: 391.3 ± 57.5 ng/mL
[Brain]/[Plasma] Ratio ± SD ([2]; GBM8 PDX, 60 min, single s.c. dose 1.5 mg/kg): 0.11 ± 0.04
[Brain]/[Plasma] Ratio ± SD [2, 4]: 0.23 ± 0.01
[Plasma] ± SD [2, 4]: 88.4 ± 9.0 ng/mL
[Brain] ± SD, right hemisphere (tumor bearing) [2, 5]: 20.7 ± 5.05 ng/g
[Liver] ± SD [2, 5]: 1653.4 ± 163.6 ng/g
[Plasma] ± SD ([2]; GS832-PDX NOD/SCID mice, single s.c. dose 1.5 mg/kg, 15 min (Table 1)): 396.3 ± 58.7 ng/mL
[Plasma] ± SD ([2]; GS832-PDX NOD/SCID mice, single s.c. dose 1.5 mg/kg, 60 min (Table 1, n = 9)): 165.7 ± 28.7 ng/mL
[Plasma] ± SD ([2]; GS832-PDX NOD/SCID mice, single s.c. dose 1.5 mg/kg, 240 min (Table 1)): 23.9 ± 2.86 ng/mL
[Brain] ± SD, right hemisphere (tumor bearing) [2, 6]: 18.0 ± 6.3 ng/g
[Liver] ± SD [2, 6]: 680.0 ± 155.9 ng/g
[Brain]/[Plasma] Ratio ± SD ([2]; GS832-PDX, 60 min, single s.c. dose 1.5 mg/kg): 0.10 ± 0.05
[Liver] ± SD ([2]; GS832-PDX, 240 min, single s.c. dose 1.5 mg/kg, n = 5): 190.1 ± 47.8 ng/g
[Brain]/[Plasma] Ratio ± SD ([2]; GS832-PDX, 240 min, single s.c. dose 1.5 mg/kg): 0.50 ± 0.33
brain total mean concentration lower than in the liver [2, 7]: approximately 40 fold
concentrations in tumor-bearing hemisphere versus contralateral hemisphere [2, 7]: not significantly different
reduction in plasma concentration from peak (15 min) by 4 h ([2]; GS832 tumor-bearing mice, single s.c. dose 1.5 mg/kg): 17 fold
OMA concentrations in tumor-bearing versus contralateral hemispheres ([2]; any of the tested models (GS832, GS607, GBM8)): did not detect a significant difference
concentration at 60 min ([2]; brain tumor, GBM8 PDX, 60 min, single s.c. dose 1.5 mg/kg, read-out: measured brain tumor concentration expressed): 82.5 nM
concentration at 60 min ([2]; brain tumor, GS607-PDX, 60 min, single s.c. dose 1.5 mg/kg, read-out: measured brain tumor concentration expressed): 37.9 nM
concentration at 60 min ([2]; brain tumor, GS832-PDX, 60 min, single s.c. dose 1.5 mg/kg, read-out: measured brain tumor concentration expressed): 33 nM
concentration at 60 min ([2]; brain, right hemisphere (non-tumor-bearing), naïve non-tumor-bearing mice, 60 min, single s.c. dose 1.5 mg/kg, n = 2, read-out: [Brain] ± SD, right hemisphere (non-tumor-bearing)): 16.4 ± 2.9 ng/g
concentration at 60 min ([2]; brain, right hemisphere (tumor bearing), GBM8 PDX, 60 min, single s.c. dose 1.5 mg/kg, n = 6, read-out: [Brain] ± SD, right hemisphere (tumor bearing)): 45 ± 20 ng/g
concentration at 60 min ([2]; brain, right hemisphere (tumor bearing), GS607-PDX, 60 min, single s.c. dose 1.5 mg/kg, n = 4, read-out: [Brain] ± SD, right hemisphere (tumor bearing)): 21 ± 5 ng/g
concentration at 60 min ([2]; brain, right hemisphere (tumor bearing), GS832-PDX, 60 min, single s.c. dose 1.5 mg/kg, n = 5, read-out: [Brain] ± SD, right hemisphere (tumor bearing)): 18 ± 6 ng/g
